Data as given in US8426598B2, “N-heterocyclic M1 receptor positive allosteric modulators” (Merck, Sharp & Dohme, Corp., priority 2008, dated 2013).
pEC50: −log10 of the molar value.

The compounds below were run against T1, acetylcholine muscarinic M1 receptor (CHOnfat/hM1 cells) (Homo sapiens, UniProt P11229) (assay: muscarinic FLIPR assay: intracellular calcium, potentiation of an EC20 concentration of acetylcholine). Settings: FLIPR Ca2+, 4 min preincubation, then EC20 acetylcholine (3 nM final), read-out: IP Value (inflection point).
T1 construct: expressed in transfected cells; host or cells: CHOnfat cells (CHO, Geneticin selection)
T1 sequence (P11229 1-460): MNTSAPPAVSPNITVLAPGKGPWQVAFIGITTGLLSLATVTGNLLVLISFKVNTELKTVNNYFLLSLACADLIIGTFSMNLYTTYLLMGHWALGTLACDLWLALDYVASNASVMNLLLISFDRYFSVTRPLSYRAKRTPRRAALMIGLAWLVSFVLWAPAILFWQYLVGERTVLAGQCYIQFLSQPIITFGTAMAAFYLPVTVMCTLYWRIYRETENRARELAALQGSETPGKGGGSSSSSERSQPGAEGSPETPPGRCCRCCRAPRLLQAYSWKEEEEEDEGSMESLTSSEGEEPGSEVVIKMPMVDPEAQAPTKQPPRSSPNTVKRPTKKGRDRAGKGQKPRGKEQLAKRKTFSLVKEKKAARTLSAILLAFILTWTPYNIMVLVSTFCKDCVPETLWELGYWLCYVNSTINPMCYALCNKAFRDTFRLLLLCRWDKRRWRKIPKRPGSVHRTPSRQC
Assay type: cell-based
Protocol: The assay studies the effect of one or several concentrations of test compounds on basal or acetylcholine-stimulated Ca^2+ levels using FLIPR.
Compounds are prepared and subjected to a preincubation period of 4 min. Thereafter, a single EC20 concentration of acetylcholine is added to each well (3 nM final). The intracellular Ca^2+ level of each sample is measured and compared to an acetylcholine control to determine any modulatory activity.
Cells: CHOnfat/hM1, hM2, hM3 or hM4 cells are plated 24 hr before the assay at a density of 18,000 cells/well (100 μL) in a 384 well plate. CHOnfat/hM1 and CHOnfat/hM3 Growth Medium: 90% DMEM (Hi Glucose); 10% HI FBS; 2 mM L-glutamine; 0.1 mM NEAA; Pen-Strep; and 1 mg/ml Geneticin, are added. For M2Gqi5CHOnfat and M4Gqi5CHOnfat cells, an additional 600 μg/ml hygromycin is added.
Equipment: 384 well plate, 120 μL addition plate; 96-well Whatman 2 ml Uniplate Incubator, 37° C., 5% CO2; Skatron EMBLA-384 Plate Washer; Multimek Pipetting System; Genesis Freedom 200 System; Mosquito System; Temo Nanolitre Pipetting System; and FLIPR^384 Fluorometric Imaging Plate Reader System are used.
Buffers. Assay Buffer: Hanks Balanced Salt Solution, with 20 mM Hepes, 2.5 mM Probenecid (Sigma P-8761) first dissolved in 1 N aqueous NaOH, 1% Bovine Serum Albumin (Sigma A-9647). Dye Loading Buffer: Assay Buffer plus 1% Fetal Bovine Serum and Fluo-4AM/Pluronic Acid Mixture. 2 mM Fluo-4AM ester stock in DMSO (Molecular Probes F-14202) Concentration of 2 μM in buffer for a final concentration of 1 μM in Assay. 20% Pluronic Acid Solution stock, with a concentration of 0.04% in Buffer, 0.02% in Assay.
65 μL of 2 mM Fluo-4AM are mixed with 130 μL of 20% Pluronic Acid. The resulting solution and 650 μL FBS is added to the assay buffer for a total volume of 65 mL. Positive Controls: 4-Br-A23187: 10 mM in DMSO; final concentration 10 μM. Acetylcholine: 10 mM in water, working stock at both 20 μM and 30 μM in assay buffer, final concentration of 10 μM. This is used to check the maximum stimulation of the CHOK1/hM1 cells. 20 μM (2×) acetylcholine is added in the preincubation part of the assay, and the 30 μM (3×) stock is added in the second part. (EC20)Acetylcholine: 10 mM in water, working stock of 9 nM (3×), and final concentration in assay is 3 nM. This is used after the preincubation with test compounds. Addition of the EC20 Acetylcholine to each well with a test compound will ascertain any modulator activity. 24 wells contain 3 nM Acetylcholine alone as a control.
Screening Plate: Compounds are titrated in 96-well plates (columns 2-11), 100% DMSO, started at a concentration of 15 mM (150× stock concentration), and 3-fold serial dilutions using Genesis Freedom200 System. Four 96-well plates are combined into a 384-well plate using Mosquito Nanolitre Pipetting System by transferring 1 μl of serial diluted compounds to each well, and 1 mM acetylcholine (100× stock concentration) were added as a control. Using Temo, 49 μl assay buffer is added to each well of the 384-well plate right before assay.
In a 96-well Whatman 2 ml Uniplate, 9 nM Acetylcholine (3×) is pipetted into wells corresponding to the screening compounds and into control wells. The 30 μM acetylcholine control (3×) is added into control wells and the 3× agonist plate is transferred into a 384-well plate.
Cells are washed three times with 100 μL of buffer, leaving 30 μL of buffer in each well. Using Multimek, 30 μL of Dye Loading Buffer is added into each well and incubated at 37° C., 5% CO2 for up to one hr.
After 60 min, the cells are washed three times with 100 μL of buffer, leaving 30 μL of buffer in each well. The cell plate, screening plate, and agonist addition plates are placed on the platform in the FLIPR and the door is closed. A signal test to check background fluorescence and basal fluorescence signal is performed. Laser intensity is adjusted if necessary. […]
`O=C(O)c1cn(Cc2ccc(-n3cc(CF)cn3)cc2)c2cccc(F)c2c1=O` [Example 62] showed a pEC50 of 7.51.
With `O=C(O)c1cn(Cc2ccc(-n3ccnc3)cc2)c2cccc(F)c2c1=O` [Example 6] the pEC50 was 6.99.
`CCOC(=O)c1cn(Cc2ccc(-n3cc(C#N)cn3)cc2)c2cccc(F)c2c1=O` [Example 155, Ethyl 1-[4-(4-cyano-1H-pyrazol-1-yl)benzyl]-5-fluoro-4-oxo-1,4-dihydroquinoline-3-carboxylate] was tested, and the pEC50 was 6.42.
In the case of `C=Cc1cnn(-c2ccc(Cn3cc(C(=O)OCC)c(=O)c4c(F)cccc43)cc2)c1` [Example 156, Ethyl 5-fluoro-4-oxo-1-[4-(4-vinyl-1H-pyrazol-1-yl)benzyl]-1,4-dihydroquinoline-3-carboxylate], the pEC50 was 7.60.
Work on `O=C(O)c1cn(Cc2ccc(-n3cc(CO)cn3)cc2)c2cccc(F)c2c1=O` [Example 59] yielded a pEC50 of 7.41.
`CN(C)c1ccc(Cn2cc(C(=O)O)c(=O)c3c(F)cccc32)cc1` [Example 150, 1-[4-(dimethylamino)benzyl]-5-fluoro-4-oxo-1,4-dihydroquinoline-3-carboxylic acid] showed a pEC50 of 5.97.
Work on `CNc1ccc(Cn2cc(C(=O)O)c(=O)c3c(F)cccc32)cc1` [Example 149, 5-Fluoro-1-[4-(methylamino)benzyl]-4-oxo-1,4-dihydroquinoline-3-carboxylic acid] yielded a pEC50 of 6.13.
For `O=C(O)c1cn(Cc2ccc(-n3cnc(-c4ccccc4)c3)cc2)c2cccc(F)c2c1=O` [Example 31], the pEC50 was 7.40.
With `O=C(O)c1cn(Cc2ccc(N3CCCC3=O)cc2)c2cccc(F)c2c1=O` [Example 3, 5-Fluoro-4-oxo-1-[4-(2-oxopyrrolidin-1-yl)benzyl]-1,4-dihydroquinoline-3-carboxylic acid] the pEC50 was 5.60.
Work on `O=C(O)c1cn(Cc2ccc(-n3ccc4ncccc43)cc2)c2cccc(F)c2c1=O` [Example 36] yielded a pEC50 of 7.40.
In the case of `CCOC(=O)c1cn(Cc2ccc(-n3ccc(C(F)F)n3)cc2)c2cccc(F)c2c1=O` [Example 153, Ethyl 1-{4-[3-(difluoromethyl)-1H-pyrazol-1-yl]benzyl}-5-fluoro-4-oxo-1,4-dihydroquinoline-3-carboxylate], the pEC50 was 6.13.
For `CC(=O)c1cn(-c2ccc(Cn3cc(C(=O)O)c(=O)c4cccc(F)c43)c(F)c2)c2ccccc12` [Example 120], the pEC50 was 7.35.
Compound `O=C(O)c1cn(Cc2ccc(-n3cc(CCO)cn3)cc2)c2cccc(F)c2c1=O` [Example 19] has a pEC50 of 7.49.
`O=C(O)c1cn(Cc2ccc(-n3ccc(CF)n3)cc2)c2cccc(F)c2c1=O` [Example 152, 5-Fluoro-1-{4-[3-(fluoromethyl)-1H-pyrazol-1-yl]benzyl}-4-oxo-1,4-dihydroquinoline-3-carboxylic acid] gave a pEC50 of 7.39.
In the case of `O=C(O)c1cn(Cc2ccc(-n3cccn3)cc2)c2c(F)ccc(F)c2c1=O` [Example 1], the pEC50 was 6.58.
With `Cc1nccn1-c1ccc(Cn2cc(C(=O)O)c(=O)c3cccc(F)c32)c(F)c1` [Example 109] the pEC50 was 6.74.
In the case of `CCOC(=O)c1cn(Cc2ccc(-n3ccc(C(C)O)n3)cc2)c2cccc(F)c2c1=O` (centres unmarked) [Example 151, Ethyl 5-fluoro-1-{4-[3-(1-hydroxyethyl)-1H-pyrazol-1-yl]benzyl}-4-oxo-1,4-dihydroquinolin-3-carboxylate], the pEC50 was 7.11.
Work on `O=C(O)c1cn(Cc2ccc(-n3cnc4ccccc43)cc2)c2c(F)ccc(F)c2c1=O` [Example 2] yielded a pEC50 of 7.24.
`O=C(O)c1cn(Cc2ccc(-n3ncc4ccccc43)cc2F)c2c(F)cccc2c1=O` [Example 112] was tested, and the pEC50 was 7.01.
In the case of `CC(C)C(=O)Nc1ccc(Cn2cc(C(=O)O)c(=O)c3c(F)cccc32)cc1` [Example 4, 5-Fluoro-1-[4-(isobutyrylamino)benzyl]-4-oxo-1,4-dihydroquinoline-3-carboxylic acid], the pEC50 was 6.51.
